Among the data in ChEMBL document CHEMBL1139667, “Discovery and SAR study of novel dihydroquinoline containing glucocorticoid receptor ligands” (Bioorg Med Chem Lett, 2006) are IC50 and Activity values, retold here.

Usually IC50 stands for the point on the concentration scale where inhibition reaches its midpoint. Lower therefore signals higher potency.

Active and inactive are the calls of the source. The rule behind the calls is not given here.

In one assay the target is T1, Progesterone receptor (Homo sapiens, UniProt P06401).
T1 sequence (P06401 whole entry): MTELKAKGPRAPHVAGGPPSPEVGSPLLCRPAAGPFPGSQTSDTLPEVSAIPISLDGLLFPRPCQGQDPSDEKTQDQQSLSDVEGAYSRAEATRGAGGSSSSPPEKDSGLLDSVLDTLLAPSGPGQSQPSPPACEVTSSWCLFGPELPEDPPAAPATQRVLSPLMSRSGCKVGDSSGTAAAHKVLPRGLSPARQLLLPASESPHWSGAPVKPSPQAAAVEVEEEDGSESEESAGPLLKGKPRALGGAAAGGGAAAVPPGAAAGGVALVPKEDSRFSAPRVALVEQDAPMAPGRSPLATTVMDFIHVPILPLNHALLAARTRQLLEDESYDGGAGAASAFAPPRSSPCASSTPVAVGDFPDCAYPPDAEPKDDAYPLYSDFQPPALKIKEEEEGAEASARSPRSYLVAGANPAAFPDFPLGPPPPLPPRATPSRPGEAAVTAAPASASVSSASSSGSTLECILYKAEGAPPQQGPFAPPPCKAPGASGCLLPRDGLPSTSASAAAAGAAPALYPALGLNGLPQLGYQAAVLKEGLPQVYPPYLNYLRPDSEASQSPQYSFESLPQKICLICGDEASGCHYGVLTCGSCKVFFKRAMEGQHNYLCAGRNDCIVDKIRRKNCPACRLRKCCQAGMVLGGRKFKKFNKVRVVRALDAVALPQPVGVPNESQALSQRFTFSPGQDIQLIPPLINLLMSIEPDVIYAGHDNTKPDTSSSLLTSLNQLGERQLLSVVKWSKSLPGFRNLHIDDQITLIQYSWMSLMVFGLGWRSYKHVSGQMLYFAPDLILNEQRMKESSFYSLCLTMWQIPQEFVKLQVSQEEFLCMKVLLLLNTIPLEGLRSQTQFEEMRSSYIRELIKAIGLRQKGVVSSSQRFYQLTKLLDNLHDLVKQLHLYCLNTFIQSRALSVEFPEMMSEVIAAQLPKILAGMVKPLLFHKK
Description: Binding affinity to human PR.

Assay [1] deals with T2, Glucocorticoid receptor (Homo sapiens, UniProt P04150).
T2 sequence (P04150 whole entry): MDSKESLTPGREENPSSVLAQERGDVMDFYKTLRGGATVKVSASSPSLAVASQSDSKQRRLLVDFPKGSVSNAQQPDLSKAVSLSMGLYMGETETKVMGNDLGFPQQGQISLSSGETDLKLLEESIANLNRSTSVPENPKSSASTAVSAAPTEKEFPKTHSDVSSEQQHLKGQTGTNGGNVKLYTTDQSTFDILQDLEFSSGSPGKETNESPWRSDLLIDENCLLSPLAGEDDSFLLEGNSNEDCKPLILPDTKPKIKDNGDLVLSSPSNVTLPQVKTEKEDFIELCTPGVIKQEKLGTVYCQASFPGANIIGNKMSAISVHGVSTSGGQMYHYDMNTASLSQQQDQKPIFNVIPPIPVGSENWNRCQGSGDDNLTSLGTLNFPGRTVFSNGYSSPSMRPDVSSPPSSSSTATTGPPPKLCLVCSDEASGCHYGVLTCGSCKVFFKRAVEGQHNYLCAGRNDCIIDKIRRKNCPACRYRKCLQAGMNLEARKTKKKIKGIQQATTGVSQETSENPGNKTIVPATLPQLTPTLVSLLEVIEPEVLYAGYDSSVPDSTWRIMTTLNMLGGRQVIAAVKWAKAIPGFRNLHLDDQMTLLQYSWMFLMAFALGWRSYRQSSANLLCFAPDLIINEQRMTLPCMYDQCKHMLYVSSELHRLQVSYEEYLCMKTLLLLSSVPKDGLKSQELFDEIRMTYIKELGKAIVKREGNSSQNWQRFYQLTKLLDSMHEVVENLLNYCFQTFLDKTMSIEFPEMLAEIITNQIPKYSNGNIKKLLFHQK
The assay is described as follows: Binding affinity to human GR.

The next assay deals with HFF. The assay is described as follows: Inhibition of IL1-induced IL6 production in human foreskin fibroblast. In kind it is functional, cell-based.
For the next assay, the target named is Estrogen receptor (Homo sapiens, UniProt Q92731+P03372). The assay is described as follows: Binding affinity to human ER. In kind it is protein assay.
In assay [2] the target is T3, Mineralocorticoid receptor (Homo sapiens, UniProt P08235).
T3 sequence (P08235 whole entry): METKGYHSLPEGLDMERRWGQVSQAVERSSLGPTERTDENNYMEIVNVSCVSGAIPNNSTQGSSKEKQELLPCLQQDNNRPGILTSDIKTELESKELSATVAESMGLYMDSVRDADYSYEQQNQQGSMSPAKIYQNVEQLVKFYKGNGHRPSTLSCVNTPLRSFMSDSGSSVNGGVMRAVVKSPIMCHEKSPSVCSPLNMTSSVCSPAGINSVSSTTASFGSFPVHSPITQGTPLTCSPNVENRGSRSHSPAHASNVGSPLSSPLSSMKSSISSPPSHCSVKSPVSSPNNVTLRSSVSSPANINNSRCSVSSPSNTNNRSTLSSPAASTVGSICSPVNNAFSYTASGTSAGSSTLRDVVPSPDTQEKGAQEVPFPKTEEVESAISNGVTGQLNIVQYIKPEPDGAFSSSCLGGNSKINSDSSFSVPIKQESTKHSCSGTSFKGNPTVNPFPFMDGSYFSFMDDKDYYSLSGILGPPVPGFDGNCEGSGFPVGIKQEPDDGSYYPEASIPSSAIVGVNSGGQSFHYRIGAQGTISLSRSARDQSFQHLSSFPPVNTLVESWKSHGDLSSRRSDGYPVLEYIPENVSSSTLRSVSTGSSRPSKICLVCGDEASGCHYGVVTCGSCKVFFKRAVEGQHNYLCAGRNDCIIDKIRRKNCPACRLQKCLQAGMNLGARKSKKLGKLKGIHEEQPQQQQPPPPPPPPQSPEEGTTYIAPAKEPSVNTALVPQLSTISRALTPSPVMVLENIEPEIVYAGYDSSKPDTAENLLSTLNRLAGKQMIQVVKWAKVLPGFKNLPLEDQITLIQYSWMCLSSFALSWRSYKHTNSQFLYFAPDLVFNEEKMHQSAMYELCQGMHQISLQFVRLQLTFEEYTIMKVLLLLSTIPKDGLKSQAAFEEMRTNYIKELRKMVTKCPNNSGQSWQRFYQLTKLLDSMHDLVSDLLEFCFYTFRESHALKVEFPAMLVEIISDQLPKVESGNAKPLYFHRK
The assay is described as follows: Binding affinity to human MR.

Assay [3] addresses T2, Glucocorticoid receptor. Description: Inhibition of Dexamethasone induced GR transactivation of MMTV luciferase in HeLa cells. In kind it is functional, cell-based.

As for `COc1ccccc1-c1ccc2c(c1)C(CSC1CCCCC1)=CC(C)(C)N2`, the IC50 at Progesterone receptor was more than 2000 nM; at Glucocorticoid receptor [1], 371 nM.
In the case of `C=CCSCC1=CC(C)(C)Nc2ccc(-c3cccc(OC)c3OC)cc21`, the half-maximal inhibitory concentration (IC50) on Progesterone receptor and on Glucocorticoid receptor [1] was more than 2000 nM each time.
On to `C=CCSCC1=CC(C)(C)Nc2ccc(-c3cc(OC)ccc3OC)cc21`, for which the IC50 on Progesterone receptor and at Glucocorticoid receptor [1] was more than 2000 nM in each case.
Consider `COc1ccccc1-c1ccc2c(c1)C(CSCc1ccccc1)=CC(C)(C)N2`, for which the IC50 on Progesterone receptor was 660 nM; at Glucocorticoid receptor [1] it was more than 2000 nM.
For `C=CCNCC1=CC(C)(C)Nc2ccc(-c3ccccc3OC)cc21` the same measures were more than 2000 nM and more than 2000 nM.
The matching figures for `C=CCSCC1=CC(C)(C)Nc2ccc(-c3ccccc3)cc21`: more than 2000 nM and more than 2000 nM.
For `C=CCSCC1=CC(C)(C)Nc2ccc(-c3ccccc3[N+](=O)[O-])cc21` the same measures were more than 2000 nM and more than 2000 nM.
As for `C=CCSCC1=CC(C)(C)Nc2ccc(-c3ccccc3C)cc21`, the IC50 at Progesterone receptor and at Glucocorticoid receptor [1] was more than 2000 nM in each case.
In the case of `CCCSCC1=CC(C)(C)Nc2ccc(-c3ccccc3OC)cc21`, the IC50 was determined as 1600 nM at Progesterone receptor and 1020 nM at Glucocorticoid receptor [1].
`C=CCSCC1=CC(C)(C)Nc2ccc(-c3cccc(OCC)c3)cc21`: the IC50 at Progesterone receptor and at Glucocorticoid receptor [1] was more than 2000 nM in each case.
Take `COc1ccccc1-c1ccc2c(c1)C(CSCCc1ccccc1)=CC(C)(C)N2`: the half-inhibitory concentration (IC50) on Progesterone receptor was more than 2000 nM; at Glucocorticoid receptor [1], 194 nM.
In the case of `C=CCSCC1=CC(C)(C)Nc2ccc(-c3ccccc3OC)cc21`, the IC50 is 460 nM at Progesterone receptor and 360 nM at Glucocorticoid receptor [1].
For `CCC(C)CSCC1=CC(C)(C)Nc2ccc(-c3ccccc3OC)cc21` (centres undefined) the same measures were more than 2000 nM and 303 nM.
For `C=CCSCC1=CC(C)(C)Nc2ccc(-c3ccccc3C(F)(F)F)cc21` the same measures were more than 2000 nM and more than 2000 nM.
Consider `CC1(C)C=C(CSCCc2ccccc2)c2cc(-c3cccc(O)c3Cl)ccc2N1`, for which the result in the assay with HFF was inactive. In addition, the IC50 was more than 2000 nM on Estrogen receptor; 1400 nM at Progesterone receptor; more than 2000 nM in assay [2]; 260 nM on Glucocorticoid receptor [3]; 220 nM at Glucocorticoid receptor [1].
In the case of `C=CCSCC1=CC(C)(C)Nc2ccc(-c3cc(F)ccc3OC)cc21`, the values for the half-inhibitory concentration (IC50) on Progesterone receptor and at Glucocorticoid receptor [1] were 1400 nM and 190 nM, respectively.
Take `C=CCOCC1=CC(C)(C)Nc2ccc(-c3ccccc3OC)cc21`: the half-maximal inhibitory concentration (IC50) on Progesterone receptor and at Glucocorticoid receptor [1] was more than 2000 nM in each case.
Regarding `COc1ccccc1-c1ccc2c(c1)C(CSc1ccccc1)=CC(C)(C)N2`, the concentration for half-maximal inhibition (IC50) at Progesterone receptor is more than 2000 nM; on Glucocorticoid receptor [1], 804 nM.
The matching figures for `C=CCSCC1=CC(C)(C)Nc2ccc(-c3ccccc3F)cc21`: 360 nM and more than 2000 nM.
For the compound `CNC(=O)CSCC1=CC(C)(C)Nc2ccc(-c3ccccc3OC)cc21`, the IC50 at Progesterone receptor and at Glucocorticoid receptor [1] was more than 2000 nM each time.
`COc1ccccc1-c1ccc2c(c1)C(CSCCC(C)C)=CC(C)(C)N2`: the IC50 was more than 2000 nM on Progesterone receptor and 703 nM on Glucocorticoid receptor [1].
The matching figures for `COc1ccccc1-c1ccc2c(c1)C(C)=CC(C)(C)N2`: more than 2000 nM and more than 2000 nM.
Regarding `COc1ccc(F)cc1-c1ccc2c(c1)C(CSCCc1ccccc1)=CC(C)(C)N2`, the outcome in the assay with HFF was inactive. Moreover, the concentration for half-maximal inhibition (IC50) on Estrogen receptor was more than 2000 nM; at Progesterone receptor, more than 2000 nM; in assay [2], more than 2000 nM; against Glucocorticoid receptor [3], 45 nM; at Glucocorticoid receptor [1], 84 nM.
With `C=CCSCC1=CC(C)(C)Nc2ccc(-c3ccccc3OCC)cc21`, the concentration for half-maximal inhibition (IC50) at Progesterone receptor and at Glucocorticoid receptor [1] was more than 2000 nM in each case.
Take `C=CCSCC1=CC(C)(C)Nc2ccc(-c3cccc(OC)c3)cc21`: the values for the IC50 at Progesterone receptor and on Glucocorticoid receptor [1] were 460 nM and 1000 nM, respectively.
For `C=CCSCC1=CC(C)(C)Nc2ccc(-c3cccc(O)c3Cl)cc21` the same measures were 960 nM and 129 nM.
The matching figures for `C=CCSCC1=CC(C)(C)Nc2ccc(-c3ccccc3-c3ccccc3)cc21`: more than 2000 nM and more than 2000 nM.
For the compound `COc1ccccc1-c1ccc2c(c1)C(CSc1ccc(Cl)cc1)=CC(C)(C)N2`, the IC50 at Progesterone receptor was more than 2000 nM; at Glucocorticoid receptor [1] it was 800 nM.
Regarding `C=CCSCC1=CC(C)(C)Nc2ccc(-c3c(OC)cccc3OC)cc21`, the IC50 on Progesterone receptor and on Glucocorticoid receptor [1] was more than 2000 nM in each case.
Take `COc1ccccc1-c1ccc2c(c1)C(CSC(C)=O)=CC(C)(C)N2`: the concentration for half-maximal inhibition (IC50) was 620 nM on Progesterone receptor and more than 2000 nM on Glucocorticoid receptor [1].
The matching figures for `COC(=O)CSCC1=CC(C)(C)Nc2ccc(-c3ccccc3OC)cc21`: more than 2000 nM and more than 2000 nM.
As to `C=CCSCC1=CC(C)(C)Nc2ccc(-c3ccc(OC)cc3)cc21`, the IC50 at Progesterone receptor and at Glucocorticoid receptor [1] was more than 2000 nM in each case.
On to `COc1ccccc1-c1ccc2c(c1)C(CSC1CCCC1)=CC(C)(C)N2`, for which the IC50 at Progesterone receptor was more than 2000 nM; on Glucocorticoid receptor [1], 548 nM.
